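The compound was tested at five concentrations on cells cultured in 96-well plates, with a 48-hour exposure period. Abbreviation: GI50, concentration required for 50% inhibition of growth.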 The source made the active and inactive calls. No stated cut-off is given here; in the data, active = GI50 up to about 1.1 µM and inactive = higher.
Key:
Experiment in all cases: growth of human tumour cells (NCI), 48 h
CCRF-CEM = system: CCRF-CEM
HCC 2998 = system: HCC 2998
HCT-15 = system: HCT-15
KM12 = system: KM12
LOX IMVI = system: LOX IMVI
M14 = system: M14
MOLT-4 = system: MOLT-4
NCI-H226 = system: NCI-H226
OVCAR-3 = system: OVCAR-3
RPMI-8226 = system: RPMI-8226
SF-295 = system: SF-295
SK-MEL-5 = system: SK-MEL-5
SK-OV-3 = system: SK-OV-3
SNB-75 = system: SNB-75
TK-10 = system: TK-10
UACC-62 = system: UACC-62
NCI/ADR-RES = system: NCI/ADR-RES
T47D = system: T47D
MCF7 = system: MCF7

Measured: GI50

CC(=O)Nc1ccc(C2=N/C(=C\c3ccc(Cl)cc3)C(=O)O2)cc1
inactive: CCRF-CEM 26.7 µM | HCC 2998 20 µM | KM12 33.1 µM | LOX IMVI 18.4 µM | M14 25.5 µM | MOLT-4 20.7 µM | NCI-H226 > 100 µM | OVCAR-3 27.8 µM | RPMI-8226 40.2 µM | SF-295 > 100 µM | SK-MEL-5 77.8 µM | SK-OV-3 30.7 µM | SNB-75 40.4 µM | TK-10 > 100 µM | UACC-62 40.6 µM
19.9 µM: HCT-15

O=c1c2cc([N+](=O)[O-])ccc2[nH]n1Cc1ccccn1
> 100 µM: HCT-15
inactive: CCRF-CEM > 100 µM | HCC 2998 > 100 µM | KM12 > 100 µM | LOX IMVI > 100 µM | M14 > 100 µM | MOLT-4 > 100 µM | NCI-H226 > 100 µM | NCI/ADR-RES > 100 µM | OVCAR-3 > 100 µM | RPMI-8226 > 100 µM | SF-295 > 100 µM | SK-MEL-5 > 100 µM | SNB-75 > 100 µM | TK-10 > 100 µM | UACC-62 > 100 µM

O=C1C(=O)N(C2CCCCC2)C(=S)N1C1CCCCC1
inactive: CCRF-CEM > 100 µM | HCC 2998 > 100 µM | KM12 > 100 µM | LOX IMVI > 100 µM | MOLT-4 > 100 µM | NCI-H226 > 100 µM | NCI/ADR-RES > 100 µM | RPMI-8226 > 100 µM | SF-295 > 100 µM | SK-MEL-5 > 100 µM | SK-OV-3 > 100 µM | SNB-75 > 100 µM | T47D > 100 µM | TK-10 > 100 µM | UACC-62 > 100 µM
> 100 µM: HCT-15

c1ccc2c(c1)[nH]c1c3ccccc3sc21
> 100 µM: HCT-15
inactive: CCRF-CEM > 100 µM | HCC 2998 > 100 µM | KM12 > 100 µM | LOX IMVI > 100 µM | M14 > 100 µM | MCF7 24.9 µM | MOLT-4 > 100 µM | NCI-H226 > 100 µM | NCI/ADR-RES > 100 µM | OVCAR-3 > 100 µM | RPMI-8226 > 100 µM | SF-295 38.1 µM | SK-MEL-5 > 100 µM | SK-OV-3 > 100 µM | SNB-75 8.41 µM | T47D 38.3 µM | TK-10 > 100 µM | UACC-62 > 100 µM

CC(C)(C)C(=O)Oc1ccc(/C=C/C(=O)c2ccc(OC(=O)C(C)(C)C)cc2)cc1
inactive: CCRF-CEM 6.53 µM | HCC 2998 > 100 µM | KM12 16.6 µM | LOX IMVI 44.5 µM | M14 > 100 µM | MCF7 46.5 µM | MOLT-4 24.4 µM | NCI-H226 > 100 µM | NCI/ADR-RES 27.5 µM | OVCAR-3 27.5 µM | SF-295 93.3 µM | SK-MEL-5 > 100 µM | SK-OV-3 > 100 µM | SNB-75 64.9 µM | T47D 91.2 µM | TK-10 > 100 µM | UACC-62 > 100 µM
96.4 µM: HCT-15

C#CCN(N=O)C(=O)NCCCCC(NC(C)=O)C(=O)NCc1ccccc1 (stereo not drawn)
> 100 µM: HCT-15
inactive: CCRF-CEM 28.4 µM | HCC 2998 > 100 µM | KM12 > 100 µM | LOX IMVI > 100 µM | M14 > 100 µM | MOLT-4 28.4 µM | NCI-H226 > 100 µM | OVCAR-3 > 100 µM | RPMI-8226 51.2 µM | SF-295 > 100 µM | SK-MEL-5 > 100 µM | SK-OV-3 > 100 µM | SNB-75 > 100 µM | TK-10 > 100 µM | UACC-62 > 100 µM

COc1ccc(NCc2cc(OC)cc(OC)c2)cc1
10.3 µM: HCT-15
inactive: CCRF-CEM 25.2 µM | HCC 2998 12.1 µM | KM12 5.7 µM | LOX IMVI 25.2 µM | M14 22.2 µM | MOLT-4 17.1 µM | NCI-H226 38.3 µM | OVCAR-3 11.9 µM | RPMI-8226 17 µM | SF-295 20.8 µM | SK-MEL-5 9.91 µM | SK-OV-3 30.1 µM | SNB-75 23.4 µM | TK-10 50.7 µM | UACC-62 9.48 µM

CCc1cccc(C)c1NC(=S)NC(=O)c1ccccc1C(=O)NC(=S)Nc1c(C)cccc1CC
inactive: CCRF-CEM 36.3 µM | HCC 2998 90.6 µM | KM12 77.1 µM | LOX IMVI > 100 µM | M14 > 100 µM | MOLT-4 53.7 µM | NCI-H226 50.4 µM | OVCAR-3 23.8 µM | RPMI-8226 60 µM | SF-295 57.7 µM | SK-MEL-5 > 100 µM | SK-OV-3 > 100 µM | SNB-75 > 100 µM | TK-10 > 100 µM | UACC-62 37.7 µM
> 100 µM: HCT-15

COC(=O)C1(NC(=O)C(N)CC(=O)O)C(C)C1C (stereo not drawn)
> 100 µM: HCT-15
inactive: CCRF-CEM > 100 µM | KM12 > 100 µM | LOX IMVI > 100 µM | M14 > 100 µM | MCF7 > 100 µM | MOLT-4 > 100 µM | NCI-H226 > 100 µM | NCI/ADR-RES > 100 µM | OVCAR-3 > 100 µM | RPMI-8226 > 100 µM | SF-295 > 100 µM | SK-MEL-5 > 100 µM | SK-OV-3 > 100 µM | SNB-75 > 100 µM | T47D > 100 µM | TK-10 > 100 µM | UACC-62 > 100 µM

CC(C)[Si](OCC1CC(C#N)OC(C)(C)O1)(C(C)C)C(C)C (stereo not drawn)
inactive: CCRF-CEM 19.5 µM | HCC 2998 21.2 µM | KM12 17.5 µM | LOX IMVI 19.3 µM | M14 20 µM | MOLT-4 19.6 µM | NCI-H226 19.1 µM | OVCAR-3 15.6 µM | RPMI-8226 14.2 µM | SF-295 14.9 µM | SK-MEL-5 15.5 µM | SK-OV-3 21.3 µM | SNB-75 31.9 µM | TK-10 39.5 µM | UACC-62 30.1 µM
27.8 µM: HCT-15

O=C1OC(Cl)C(N=P(c2ccccc2)(c2ccccc2)c2ccccc2)=C1Cl (stereo not drawn)
inactive: CCRF-CEM > 100 µM | HCC 2998 > 100 µM | KM12 > 100 µM | LOX IMVI > 100 µM | M14 > 100 µM | MOLT-4 > 100 µM | NCI-H226 > 100 µM | OVCAR-3 > 100 µM | RPMI-8226 > 100 µM | SF-295 > 100 µM | SK-MEL-5 > 100 µM | SK-OV-3 > 100 µM | SNB-75 36.4 µM | TK-10 > 100 µM | UACC-62 > 100 µM

CC(C)CCCC(C)[C@H]1CCC2[C@H]3C(CC[C@@]21C)[C@@]1(C)CCC=C[C@]12C[C@@H]2[C@@H]3O (stereo partly drawn)
> 100 µM: HCT-15
inactive: CCRF-CEM > 100 µM | HCC 2998 > 100 µM | KM12 > 100 µM | LOX IMVI > 100 µM | M14 > 100 µM | MOLT-4 > 100 µM | NCI-H226 > 100 µM | OVCAR-3 > 100 µM | RPMI-8226 > 100 µM | SF-295 > 100 µM | SK-MEL-5 > 100 µM | SK-OV-3 > 100 µM | SNB-75 > 100 µM | TK-10 > 100 µM | UACC-62 > 100 µM

— ChEMBL document CHEMBL1201862, “PubChem BioAssay data set” (2004)
